Test results reported in US4761405A, “Antagonists of specific excitatory amino acid neurotransmitter receptors having increased potency” (priority 1987, dated 1988).
Several values for one entry are separate records, joined by “and”; a condition that tells them apart may be missing. Equal entries are not always repeated. Entries after “also recorded” stand apart in the source; their conditions may differ. Where two headings read alike, the source gives them in different places.

What was measured:
[1] = system: pentylenetetrazol (PTZ)-induced seizures; experiment: Protection against pentylenetetrazol (PTZ)-induced seizures; assay type: in vivo, male CF-1 mice
Experimental: The anticonvulsant properties of example IV and of the reference compound DL(±)AP7 against seizures induced by subcutaneous (s.c.) injection of pentylenetetrazol (PTZ) were evaluated using mice.
For testing, PTZ was dissolved in saline (0.9%; w/v) and administered to male CF-1 mice (Charles Rivers: 20-25 g) at a dose of 90 mg/kg (s.c.) fifteen minutes (ICV) or thirty minutes (IP) after the administration of the test compounds. Example IV and the reference compound were dissolved in sline and administered in a final volume of 5 μL (ICV) or 200 μL (IP). […] Presence of seizures was defined as one or more episodes of clonic activity having a duration of five seconds or greater. Following preliminary dose-ranging studies, dose-response curves were generated using at least five different doses of each compound with eight animals at each dose. The dose of drug required to protect fifty percent (ED50) of the test animals from PTZ-induced seizures was calculated using log-logit analysis. Ninety-five percent confidence intervals (CL95) were calculated using the method of Litchfield and Wilcoxon [J. Pharmacol. Exp. Therap., 96, 99-113 (1949)].
(§1) Method(s) have been described in the text. Where ED50 's are shown,
(§2) *Where ninetyfive percent confidence limits are not shown, the values

[2] = system: maximal electroshock (MES)-induced seizures; experiment: Protection against maximal electroshock (MES)-induced seizures; assay type: in vivo, male CF-1 mice; details: for ED50: Mus musculus, 0.5 h, ip, 30 min prior; for ED50 / ED50, maximal electroshock, icv: 50 mA, 0.2 s; for ED50, maximal electroshock, icv: 15 min prior
Experimental: The anticonvulsant properties of example IV and of the reference compound DL(±)AP7 against seizures induced by maximal electroshock (MES) were evaluated using mice.
For testing, electrodes were clipped to the ears of male CF-1 mice (20-25 g; Charles Rivers) and a current of 50 mA was delivered for 0.2 seconds to produce seizures. Drugs were dissolved in saline (0.9%; w/v) and administered fifteen minutes (ICV) or thirty minutes (IP) prior to testing. Injection protocols and group size were identicl to those described in example VI. […] Seizures were scored as being present or absent. Data was calculated as described in example VI.
as §1, §2

[3] = system: KA receptors (rat forebrain membranes); experiment: In vitro receptor binding: inhibition of specific [3H]KA binding; details: for Percent inhibition of specific ligand binding, [3H]KA: 50 μM compound, 2 nM ligand, pH 7.4, 90 min, 2° C., mean ± S.E.M. of three determinations
Experimental: (§3) The potency of the compound described in example IV to inhibit the specific binding of various EAA ligands to rat forebrain membranes was examined using standard in vitro binding techniques. Specifically, example IV was evaluated for potency to inhibit the specific binding of [^3 H]kainic acid ([^3 H]KA),[^3 H]RS-α-amino-3-hydroxy-5-methyl-4-isoxazole propionic acid([^3 H]AMPA) and [^3 H]3-(2-carboxypiperazin-4-yl) propyl-1-phosphonic acid([^3 H]CPP) to KA, QUIS and NMDA receptors, respectively.
(§4) Methods were as follows: rat forebrain membranes were prepared as described by Enna and Synder [Mol. Pharmacology, 13, 422-453 (1977)] and the "buffy coat" preparation was washed three additional times by centrifugation (45,000 g; 10 min; 4° C.) with intermittent resuspensions (20 vol; w/v) in fresh buffer (Tris HCl; 0.05M; pH 7.4; 23° C.). Following the final wash, pellets were stored frozen (-20° C.) until used.
(§5) On the day of assay, pellets were thawed to room temperature, resuspended in buffer (Tris HCl; 0.05 M; various pH; 23° C.) and washed three additional times by centrifugation as described in the preceeding paragraph. For assay, the washed tissue was resuspended in buffer at a concentration of 10 mg/mL. All procedures were performed using triplicate incubations in a final volume of 2 mL which consisted of the tissue suspension (1 mL), ligand, the compound(s) of interest and 1 mL of buffer. In every instance, Glu (10^-3 M) was used to determine nonspecific binding. Assays were terminated by centrifugation (45,000 g; 10 min; 4° C.), the pellet was washed rapidly and superficially with 2×2.5 mL of ice-cold buffer and dissolved in 1 mL of Protosol® (New England Nuclear, Boston, Mass.). Following the addition of 6 mL of Econfluor® (New England Nuclear, Boston, Mass.) radioactivity was determined using conventional liquid scintillation spectrophotometry.
Specific binding of [^3 H]KA (S.A.=60 Ci/mmol, New England Nuclear, Boston, Mass.) was examined according to the method of London and Coyl [(Mol. Pharmacol., 15, 492-505 (1979)] using Tris HCl buffer (pH 7.4). Incubations were conducted for 90 min at 2° C. using a final ligand concentration of 2 nM.
(§6) All assays were performed on three separate occassions. Appropriate reference compounds were evaluated in each assay and experiment using parallel incubations. All compounds were examined at a single concentration (50 uM) and activity was expressed as the percent inhibition of specific binding of each ligand.
(§7) Method(s) have been described in the text. Values shown are the means ±S.E.M. of three separate determinations performed using triplicate incubations and are expressed as the percent inhibition of specifically bound ligand. All drugs were tested at a single concentration of 50 μM.

[4] = system: QUIS receptors (rat forebrain membranes); experiment: In vitro receptor binding: inhibition of specific [3H]AMPA binding; details: for Inhibition of [3H]AMPA binding, in words: 50 μM; for Percent inhibition of specific ligand binding, [3H]AMPA: 50 μM compound, 4 nM ligand, pH 6.9, 100 mM KSCN, 60 min, 4° C., mean ± S.E.M. of three determinations
Experimental: as §3, §4, §5
Specific [^3 H]AMPA (S.A.=27.5 Ci/mmol, New England Nuclear, Boston, Mass.) binding was examined according to the method of Murphy et al., [(Soc. Neurosci. Abs., 11, 109, (1985)] using Tris HCl buffer (pH 6.9) supplemented with 100 mM KSCN. Incubations were conducted for 60 min at 4° C. using a final ligand concentration of 4 nM.
as §6, §7

[5] = system: NMDA receptors (rat forebrain membranes); experiment: In vitro receptor binding: inhibition of specific [3H]CPP binding; details: for Inhibition of [3H]CPP binding / interaction with NMDA-type receptors, in words: 50 μM; for Percent inhibition of specific ligand binding, [3H]CPP: 50 μM compound, 8 nM ligand, pH 7.4, 30 min, 23° C., mean ± S.E.M. of three determinations
Experimental: as §3, §4, §5
Specific binding of [^ 3H]CPP (S.A.=27 Ci/mmol, New England Nuclear, Boston, Mass.) was examined using a modification of the method of Murphy et al., [(J. Pharmacol. Exp. therap., (in press)] using Tris HCl buffer (pH 7.4). Incubations were conducted for 30 min at 23° C. using a final ligand concentration of 8 nM.
as §6, §7

[6] = system: cultured rat hippocampal neurones; details: cited from earlier work
[7] = icv, 15 min before PTZ 90 mg/kg s.c.
[8] = ">" = maximum dose tested, no animals protected, read-out: ED50, maximal electroshock, ip (mg/kg)
[9] = ">" = maximum dose tested, no animals protected, read-out: ED50, maximal electroshock, ip (mmol/kg)
[10] = ">" = maximum dose tested, no animals protected
[11] = Mus musculus, ip, 30 min before PTZ 90 mg/kg s.c.; ">" = maximum dose tested, no animals protected

Molecule	ED50, pentylenetetrazol, icv (nmoles) [1, 7]	ED50, pentylenetetrazol, icv (ug) [1, 7]	ED50, maximal electroshock, icv [2, 10]	Percent inhibition of specific ligand binding, [3H]KA [3] [%]	Inhibition of [3H]AMPA binding, in words [4]	Percent inhibition of specific ligand binding, [3H]AMPA [4] [%]	Inhibition of [3H]CPP binding / interaction with NMDA-type receptors, in words [5]	Percent inhibition of specific ligand binding, [3H]CPP [5] [%]	other results
NC(CCCCCP(=O)(O)O)C(=O)O (racemic) [DL(±)AP7]	6.8 nmol	1.37 µg	6.8 µg and 7.3 µg						ED50 ([1]; Mus musculus; ip, 30 min before PTZ 90 mg/kg s.c.): 780 to 880 µmol/kg; ED50 ([1]; Mus musculus; ip, 30 min before PTZ 90 mg/kg s.c.; ">" = maximum dose tested, no animals protected): 176 to 199 mg/kg; Attenuation of MES-induced seizure activity, in words ([2]; ICV): dose-dependent protection; ED50 [2, 8]: 127 to 170 mg/kg; ED50 [2, 9]: 0.56 to 0.76 mmol/kg; ED50, maximal electroshock, icv [2]: 29 nmol and 34 nmol
C=C(C)[C@H]1CN[C@H](C(=O)O)[C@H]1CC(=O)O [KA, kainic acid]				100 ± 0	moderate activity	56 ± 5	without appreciable activity	3 ± 2	
NC(CC1CCCCC1CCP(=O)(O)O)C(=O)O (stereo not shown) [Example IV, 2-amino-4.5-(1,2-cyclohexyl)-7-phosphonoheptanoic acid]	0.14 nmol and 0.19 nmol	0.04 µg and 0.06 µg	90 µg	9 ± 4	without appreciable activity	1 ± 1	interacts, albeit with moderate affinity, in a highly specific manner with NMDA-type receptors	33 ± 9	fold more potent than DL(±)AP7 to prevent PTZ-induced seizures, ICV ([1]; ICV, vs DL(±)AP7): 30-40 fold; fold more potent than DL(±)AP7 to prevent PTZ-induced seizures, IP ([1]; IP, vs DL(±)AP7): approximately 2 fold; ED50 ([1]; Mus musculus, ip, 30 min before PTZ 90 mg/kg s.c.): 310 µmol/kg; ED50 [1, 11]: 90 mg/kg; ED50, pentylenetetrazol, ip ([1]; ip, 30 min before PTZ 90 mg/kg s.c.): 0.47 mmol/kg; ED50, pentylenetetrazol, ip ([1]; ip, 30 min before PTZ 90 mg/kg s.c.; ">" = maximum dose tested, no animals protected): 134 mg/kg; Anticonvulsant activity in PTZ seizure model, in words ([1]; mice): potent, novel and systemically active anticonvulsant agent; Anticonvulsant activity in PTZ seizure model, in words ([1]; mice; listed as 3-(2-phosphonoethyl)cyclohexyl-2-aminopropionic acid): provide protection in pentylenetetrazol (PTZ) induced seizures; Inhibition of [3H]KA binding, in words ([3]; 50 μM): least active; Attenuation of MES-induced seizure activity, in words ([2]; ICV): moderately potent; also recorded: relative lack of potency; fold less potent as an anticonvulsant in MES compared to its activity in the PTZ seizure model ([2]; ICV, MES vs PTZ): 360 fold; fold less potent than DL(±)AP7 as an anticonvulsant in the MES test ([2]; ICV, vs DL(±)AP7): approximately 11 fold; Prevention of MES-induced seizures on systemic administration ([2]; IP, up to 350 mg/kg, n=6): failed to prevent MES-induced seizures in any animal; ED50 [2, 8]: > 350 mg/kg; ED50 [2, 9]: > 1.2 mmol/kg; ED50, maximal electroshock, icv [2]: 314 nmol; Inhibition of [3H]CPP binding / interaction with NMDA-type receptors, in words ([5]; listed as 3-(2-phosphonoethyl)cyclohexyl-2-aminopropionic acid): high affinity and selectivity
δ-D-glutamyl glycine									Effect on toxicity of exogenously applied Glu and Asp ([6]; exogenously applied Glu and Asp): blocking the toxicity of exogenously applied Glu and Asp; Protection of neurones from degeneration ([6]; oxygen depletion): protect cultured rat hippocampal neurones from degeneration
NC(CCC1CCCCC1CP(=O)(O)O)C(=O)O (stereo not shown) [4-(2-phosphonomethyl)cyclohexyl-2-aminobutyric acid]							high affinity and selectivity		Anticonvulsant activity in PTZ seizure model, in words ([1]; mice): provide protection in pentylenetetrazol (PTZ) induced seizures
Cc1onc(O)c1CC(N)C(=O)O (racemic) [AMPA, RS-α-amino-3-hydroxy-5-methyl-4-isoxazole propionic acid]				64 ± 4	most potent inhibitors of binding	100 ± 0	without appreciable activity	7 ± 4	
N[C@H](CCCCCP(=O)(O)O)C(=O)O [D(-)AP7, D(-)-2-amino-7-phosphonoheptanoic acid]				17 ± 2		7 ± 5		100 ± 0	
NC(Cc1ccccc1CCP(=O)(O)O)C(=O)O (stereo not shown) [III, 2-Amino-4,5-benzo-7-phosphonoheptanoic acid]	44 nmol	3.2 µg	> 100 µg						ED50 [1, 11]: > 350 mg/kg
N[C@H](CCCP(=O)(O)O)C(=O)O [D(-)AP5, D(-)-2-amino-5-phosphonopentanoic acid]				22 ± 1		3 ± 2		95 ± 4	
